Results published in a melting point compilation (Tetko et al.; mined from patent text by program, amines drawn as free bases though some values may be those of a salt).

`CCCCc1cc(NN)n2nccc2n1` showed a melting point of 126 to 129 °C.
Work on `C#Cc1ccc(C2SCC(C(C)(C)C)CS2)cc1` (stereo unspecified) yielded a melting point of 149 °C.
With `O=C(NO)OCC1c2ccccc2-c2ccccc21` the melting point was 160 °C.
With `Cc1cc(C(C)(C)CO)c(Cl)nn1` the melting point was 151 to 153 °C.
In the case of `CCCCCOc1cc(C(=O)O)c2c(c1)C(=O)CC2`, the melting point is reported as 165 to 166 °C.
Molecule `CCN1CC(=O)N(c2ccccc2C(F)(F)F)C1=S` has a melting point of 82 to 85 °C.
`CCOCCNc1nc(C)c(CCO)c(=O)n1C` gave a melting point of 194 °C.
Molecule `CC(C)(C)OC(=O)NC1CCN(C(=O)C2CCN(C(=O)OCc3ccccc3)CC2)CC1` has a melting point of 150 to 152 °C.
`O=C(Nc1ccc(N2CCN(C(=O)C(O)c3ccc(O)cc3Cl)CC2)nc1)Nc1ccccc1F` (stereo unspecified) gave a melting point of 133 to 135 °C.
In the case of `O=C1CCCN1[C@@H]1c2cc(Cl)ccc2OCC[C@H]1O` (relative stereo), the melting point is reported as 186 to 188 °C.
`CC1(C)CC(N2CCCC2)=CC(=C(C#N)S(C)(=O)=O)C1` gave a melting point of 260 to 261 °C.
Molecule `COC(=O)c1cc(NC2CCOCC2)nc(Cl)n1` has a melting point of 190 to 192 °C.
`CN(C)CC1CCC2(CC1)Nc1cc(Cl)c(S(N)(=O)=O)cc1S(=O)(=O)N2` (stereo unspecified) gave a melting point of 273 °C.
With `CN(C)c1ccc(C2=NN(S(=O)(=O)c3ccc(I)cc3)CCC2)cc1` the melting point was 203 to 205 °C.
In the case of `Cn1c(C(CCN2CCC(O)(c3ccccc3)CC2)c2ccc(Cl)c(Cl)c2)cc2ccccc2c1=O` (stereo unspecified), the melting point is reported as 100 to 102 °C.
`CCOC(=O)c1cn(CC)c2cc(C3CCCCC3)c(OC)cc2c1=O` showed a melting point of 154 to 156 °C.
`CC(=O)SCCCC1(C)C(=O)N2CCCC(C(=O)O)N2C1=O` (stereo unspecified) showed a melting point of 160 to 161 °C.
With `O=C(N[C@H](Cc1cccc(OC(F)(F)C(F)F)c1)[C@@H](O)c1csc(-c2ccccc2)n1)c1cccc2c1C=CCCC2` (racemic) the melting point was 137 to 138 °C.
In the case of `CC(C)(C)NC(=O)C#CBr`, the melting point is reported as 113 °C.
For `CCCc1nccn1-c1nc(-c2ccc(Cl)cc2)c(CCCOc2ccccc2OC)o1`, the melting point was 89 to 90 °C.
With `O=C1NC(=S)SC1=Cc1ccc(C(F)(F)F)o1` the melting point was 174 °C.
For `O=C(C=Cc1ccc(C(F)(F)F)cc1)N1CCOCC1`, the melting point was 142 to 144 °C.
Molecule `COCCCNc1nc(N)c(C(=O)c2ccccc2[N+](=O)[O-])s1` has a melting point of 170 to 172 °C.
`COc1ccc2cc([C@H](C)C(=O)OC[C@@H]3NC(=O)[C@@H](C(C)(C)S)NC3=O)ccc2c1` showed a melting point greater than 180 °C.
With `O=C(Nc1ccc(F)cc1)c1ccccc1F` the melting point was 102 to 104 °C.
In the case of `CC1CN(c2ccc(C(N)=O)cc2)CCN1Cc1cn2cc(Cl)ccc2n1` (racemic), the melting point is reported as 202 to 204 °C.
With `CC(Cc1ccc(OCC(N)=O)cc1)NCC(OCCO)c1ccc(O)cc1` (stereo unspecified) the melting point was 145 to 160 °C.
Work on `O=Cc1cc(O)c(O)cc1Cl` yielded a melting point of 217 to 218 °C.
Molecule `Cc1cc(C2CCN(S(=O)(=O)C3(C(=O)NO)CCN(C(=O)OC(C)(C)C)CC3)CC2)ccc1-c1cccc(OCCO)n1` has a melting point of 180 to 181 °C.
With `O=C(NCc1ccccc1)c1ccnc(NC(=O)c2ccc(OC(F)(F)F)cc2)c1` the melting point was 151 to 153 °C.
With `COc1ccc(C(=C/C=C/C(=O)NCCCCc2cccnc2)c2ccc(OC)cc2)cc1` the melting point was 76 to 77 °C.
In the case of `CCOC(=O)Cc1c(C(=O)O)c(C)c(C(=O)c2ccc(Cl)cc2)n1C`, the melting point is reported as 197 to 198 °C.
With `COc1cc(C(C)=O)c(O)cc1OCCCCl` the melting point was 99 to 101 °C.
`CN(CCCOc1ccc(C=C2SC(=O)NC2=O)cc1)c1nc2ccccc2o1` showed a melting point of 202 to 204 °C.
For `Nc1ccccc1SCn1ccccc1=O`, the melting point was 130 to 133 °C.
With `CC(C)(C)OC(=O)NCc1cccc(Cn2ccc(OCc3ccc(F)cc3)c(Br)c2=O)c1` the melting point was 136 to 138 °C.
Molecule `CC1(C)CCC(C)(C)c2cc(C(=O)c3ccc(C(=O)O)cc3)c(OCc3ccccc3)cc21` has a melting point of 212 to 213 °C.
In the case of `COc1ccc2cc(C(Br)Br)ccc2c1`, the melting point is reported as 116 °C.
Work on `O=Cc1[nH]cc2c1OCCO2` yielded a melting point of 147 °C.
For `Clc1ccc(C(Cl)c2cc3cc(Br)ccc3o2)cc1` (stereo unspecified), the melting point was 83 to 85 °C.
Work on `COC(=O)CCCc1cc2nc(Cl)ccc2n1S(=O)(=O)c1ccc2c(c1)CCN2C(C)=O` yielded a melting point of 123 °C.
